In the supplement of paper PMC10331698:
± gives the standard deviation of the averaged measurements.

Legend:
Test in all cases: level (log10 ratio to DMSO vehicle control); higher = higher biomarker level / cell amount than vehicle control
Conditions in all cases: in DMSO
[1] = compound: NS(=O)(=O)C(F)(F)C(F)(F)C(F)(F)C(F)(F)C(F)(F)C(F)(F)F [Perfluorohexanesulfonamide]
Experimental: (§1)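 BioMAP Diversity Plus panel of 12 human primary cell co-culture systems (3C, 4H, LPS, SAg, BT, BF4T, BE3C, CASM3C, HDF3CGF, KF3CT, MyoF, Mphg). Compounds were added 1 h before stimulation and left for 24 h (MyoF 48 h; BT 72 h for soluble read-outs or 6 d for IgG). Biomarkers were read by ELISA, cytotoxicity by SRB, PBMC viability and proliferation by Alamar Blue. Each well value was divided by the mean of 8 DMSO control wells on the same plate and log10 transformed; duplicate blinded samples were tested at 4 concentrations.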

[2] = compound: O=C(O)C=CC(F)(C(F)(F)F)C(F)(F)F [3-(Perfluoroisopropyl)-2-propenoic acid]
Experimental: as §1

[3] = compound: C=C(C)C(=O)OCCC(F)(F)C(F)(F)C(F)(F)C(F)(F)C(F)(F)C(F)(F)F [6:2 Fluorotelomer methacrylate]
Experimental: as §1

[4] = compound: FC(F)(F)C(F)(F)C(F)(F)C(F)(F)C(F)(F)C(F)(F)CC1CO1 [3-(Perfluorohexyl)-1,2-epoxypropane]
Experimental: as §1

Nonafluoropentanamide = compound: NC(=O)C(F)(F)C(F)(F)C(F)(F)C(F)(F)F [Nonafluoropentanamide]
Experimental: as §1

[5] = compound: O=C(O)C(F)(F)C(F)(F)C(F)(F)C(F)(F)C(F)(F)C(F)(F)C(F)(F)C(F)(F)C(F)(F)C(F)F [11-H-Perfluoroundecanoic acid]
Experimental: as §1

[6] = compound: O=S(=O)(F)C(F)(F)C(F)(F)C(F)(F)C(F)(F)C(F)(F)C(F)(F)C(F)(F)C(F)(F)F [Perfluorooctanesulfonyl fluoride]
Experimental: as §1

HDF3CGF:Collagen I
level (log10) ([1]; 6700 nM): 0.005 ± 0.035
level (log10) ([1]; 20000 nM): 0.0075 ± 0.011
level (log10) ([1]; 60000 nM): -0.0435 ± 0.015
level (log10) ([2]; 6700 nM): -0.0205 ± 0.043
level (log10) ([2]; 20000 nM): -0.0065 ± 0.023
level (log10) ([2]; 60000 nM): 0.0475 ± 0.035
level (log10) ([3]; 6700 nM): -0.0655 ± 0.022
level (log10) ([3]; 20000 nM): -0.0695 ± 0.049
level (log10) ([3]; 60000 nM): 0.0095 ± 0.097
level (log10) ([4]; 6700 nM): -0.001 ± 0.025
level (log10) ([4]; 20000 nM): -0.0145 ± 0.012
level (log10) ([4]; 60000 nM): 0.0545 ± 0.04
level (log10) (Nonafluoropentanamide; 6700 nM): 0.02 ± 0.031
level (log10) (Nonafluoropentanamide; 20000 nM): 0.013 ± 0.057
level (log10) (Nonafluoropentanamide; 60000 nM): 0.067 ± 0.033
level (log10) ([5]; 6700 nM): -0.093 ± 0.034
level (log10) ([5]; 20000 nM): -0.077 ± 0.025
level (log10) ([6]; 6700 nM): -0.0055 ± 0.057
level (log10) ([6]; 20000 nM): 0.015 ± 0.014
level (log10) ([6]; 60000 nM): 0.041 ± 0.027

HDF3CGF:Collagen III
level (log10) ([1]; 6700 nM): 0.0055 ± 0.022
level (log10) ([1]; 20000 nM): 0.0305 ± 0.011
level (log10) ([1]; 60000 nM): -0.1 ± 0.018
level (log10) ([2]; 6700 nM): -0.0125 ± 0.00071
level (log10) ([2]; 20000 nM): 0.009 ± 0.0014
level (log10) ([2]; 60000 nM): 0.033 ± 0.038
level (log10) ([3]; 6700 nM): -0.0285 ± 0.044
level (log10) ([3]; 20000 nM): -0.007 ± 0.041
level (log10) ([3]; 60000 nM): 0.003 ± 0.052
level (log10) ([4]; 6700 nM): -0.0075 ± 0.012
level (log10) ([4]; 20000 nM): -0.005 ± 0.0099
level (log10) ([4]; 60000 nM): 0.0155 ± 0.046
level (log10) (Nonafluoropentanamide; 6700 nM): 0.033 ± 0.0014
level (log10) (Nonafluoropentanamide; 20000 nM): 0.026 ± 0.0014
level (log10) (Nonafluoropentanamide; 60000 nM): 0.049 ± 0.0099
level (log10) ([5]; 6700 nM): -0.172 ± 0.033
level (log10) ([5]; 20000 nM): -0.294 ± 0.03
level (log10) ([6]; 6700 nM): 0.055 ± 0.016
level (log10) ([6]; 20000 nM): 0.039 ± 0.025
level (log10) ([6]; 60000 nM): -0.03 ± 0.055

HDF3CGF:EGFR
level (log10) ([1]; 6700 nM): 0.0525 ± 0.0064
level (log10) ([1]; 20000 nM): 0.043 ± 0.024
level (log10) ([1]; 60000 nM): -0.103 ± 0.059
level (log10) ([2]; 6700 nM): -0.0025 ± 0.005
level (log10) ([2]; 20000 nM): 0.0015 ± 0.005
level (log10) ([2]; 60000 nM): 0.0265 ± 0.025
level (log10) ([3]; 6700 nM): 0.004 ± 0.0071
level (log10) ([3]; 20000 nM): 0.0275 ± 0.028
level (log10) ([3]; 60000 nM): 0.0155 ± 0.0092
level (log10) ([4]; 6700 nM): -0.0135 ± 0.011
level (log10) ([4]; 20000 nM): -0.01 ± 0.011
level (log10) ([4]; 60000 nM): -0.0055 ± 0.036
level (log10) (Nonafluoropentanamide; 6700 nM): -0.067 ± 0.058
level (log10) (Nonafluoropentanamide; 20000 nM): -0.048 ± 0.016
level (log10) (Nonafluoropentanamide; 60000 nM): -0.002 ± 0.042
level (log10) ([5]; 6700 nM): -0.022 ± 0.011
level (log10) ([5]; 20000 nM): -0.124 ± 0.018
level (log10) ([6]; 6700 nM): -0.0255 ± 0.067
level (log10) ([6]; 20000 nM): -0.089 ± 0.17
level (log10) ([6]; 60000 nM): -0.0715 ± 0.19

HDF3CGF:M-CSF
level (log10) ([1]; 6700 nM): 0.0285 ± 0.037
level (log10) ([1]; 20000 nM): 0.0395 ± 0.035
level (log10) ([1]; 60000 nM): -0.065 ± 0.038
level (log10) ([2]; 6700 nM): -0.0005 ± 0.0021
level (log10) ([2]; 20000 nM): 0.001 ± 0.0028
level (log10) ([2]; 60000 nM): 0 ± 0.0057
level (log10) ([3]; 6700 nM): -0.02 ± 0.0057
level (log10) ([3]; 20000 nM): -0.022 ± 0.0099
level (log10) ([3]; 60000 nM): -0.029 ± 0.0028
level (log10) ([4]; 6700 nM): 0 ± 0.014
level (log10) ([4]; 20000 nM): -0.002 ± 0.0042
level (log10) ([4]; 60000 nM): -0.019 ± 0.0085
level (log10) (Nonafluoropentanamide; 6700 nM): -0.006 ± 0.017
level (log10) (Nonafluoropentanamide; 20000 nM): 0.01 ± 0.0014
level (log10) (Nonafluoropentanamide; 60000 nM): 0.0095 ± 0.021
level (log10) ([5]; 6700 nM): -0.0345 ± 0.005
level (log10) ([5]; 20000 nM): -0.108 ± 0.029
level (log10) ([6]; 6700 nM): 0.0175 ± 0.005
level (log10) ([6]; 20000 nM): 0.0015 ± 0.0078
level (log10) ([6]; 60000 nM): -0.013 ± 0.058

HDF3CGF:MMP-1
level (log10) ([1]; 6700 nM): 0.0145 ± 0.0064
level (log10) ([1]; 20000 nM): 0.0155 ± 0.0035
level (log10) ([1]; 60000 nM): -0.0185 ± 0.028
level (log10) ([2]; 6700 nM): 0.0005 ± 0.012
level (log10) ([2]; 20000 nM): 0.008 ± 0.011
level (log10) ([2]; 60000 nM): 0.0005 ± 0.0064
level (log10) ([3]; 6700 nM): 0.023 ± 0.0085
level (log10) ([3]; 20000 nM): 0.031 ± 0.0028
level (log10) ([3]; 60000 nM): 0.039 ± 0.0057
level (log10) ([4]; 6700 nM): 0.0005 ± 0.0021
level (log10) ([4]; 20000 nM): 0.004 ± 0.0042
level (log10) ([4]; 60000 nM): 0.003 ± 0.0071
level (log10) (Nonafluoropentanamide; 6700 nM): 0.0065 ± 0.0092
level (log10) (Nonafluoropentanamide; 20000 nM): 0.011 ± 0.0085
level (log10) (Nonafluoropentanamide; 60000 nM): 0.0085 ± 0.012
level (log10) ([5]; 6700 nM): -0.096 ± 0.034
level (log10) ([5]; 20000 nM): -0.0815 ± 0.005
level (log10) ([6]; 6700 nM): 0.023 ± 0.03
level (log10) ([6]; 20000 nM): 0.029 ± 0.024
level (log10) ([6]; 60000 nM): 0.006 ± 0.051

HDF3CGF:PAI-I
level (log10) ([1]; 6700 nM): -0.0075 ± 0.083
level (log10) ([1]; 20000 nM): 0.081 ± 0.0071
level (log10) ([1]; 60000 nM): -0.0365 ± 0.037
level (log10) ([2]; 6700 nM): -0.0085 ± 0.018
level (log10) ([2]; 20000 nM): -0.0215 ± 0.015
level (log10) ([2]; 60000 nM): -0.0005 ± 0.032
level (log10) ([3]; 6700 nM): -0.0695 ± 0.083
level (log10) ([3]; 20000 nM): -0.057 ± 0.064
level (log10) ([3]; 60000 nM): -0.0415 ± 0.057
level (log10) ([4]; 6700 nM): -0.0375 ± 0.019
level (log10) ([4]; 20000 nM): -0.022 ± 0.033
level (log10) ([4]; 60000 nM): -0.0115 ± 0.05
level (log10) (Nonafluoropentanamide; 6700 nM): -0.014 ± 0.078
level (log10) (Nonafluoropentanamide; 20000 nM): 0.0005 ± 0.059
level (log10) (Nonafluoropentanamide; 60000 nM): 0.0125 ± 0.019
level (log10) ([5]; 6700 nM): 0.018 ± 0.0099
level (log10) ([5]; 20000 nM): -0.0045 ± 0.0035
level (log10) ([6]; 6700 nM): 0.0235 ± 0.12
level (log10) ([6]; 20000 nM): 0.035 ± 0.013
level (log10) ([6]; 60000 nM): 0.101 ± 0.033
